Test system: late watergrass
Assay: Test Example 1: herbicidal activity, application before weed generation under submerged conditions (Table 16, symbol A)
Format: in vivo, late watergrass (Echinochloa oryzicola)
Conditions: 320 g/ha applied herbicide
How it was run: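 Alluvial soil was flooded to 4 cm depth, weed seeds were sown mixed and 2.5-leaf rice seedlings were transplanted. On sowing day, the compound's emulsion, diluted in water to a set dose, was applied to the water surface. Plants grew at 25–30 °C and were scored 0–5 after three weeks.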

Row | SMILES | Herbicidal effect on A: late watergrass (grade 0-5)
1 | Cc1nn(C)c(=O)c(-c2c(-c3ccc(SC4CC4)cc3)sc3ccc(F)cc23)c1O [2-254] | 5 (Herbicidal rate of 90% or more (almost completely withered))
2 | Cc1nn(C)c(=O)c(-c2c(-c3ccc([S+]([O-])C(C)C)cc3)sc3ccc(F)cc23)c1O (centres unmarked) [2-257] | 1 (Herbicidal rate of 5% or more and less than 20%)

Test system: late watergrass
Assay: Test Example 2: herbicidal activity, application during weed generation under submerged conditions (Table 17, symbol A)
Format: in vivo, late watergrass (Echinochloa oryzicola)
Conditions: AAH 320 g/ha; application during weed generation, submerged conditions
How it was run: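 Herbicide emulsion, diluted with water to the chosen amount, is applied onto 4 cm floodwater over alluvial soil where the weeds were co-sown and raised at 25–30° C. Application timing: 1–2 leaves. Assessment: three weeks afterwards.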

Row | SMILES | herbicidal effect rating, A: late watergrass
3 | Cc1nn(C)c(=O)c(-c2c(-c3ccc(SC4CC4)cc3)sc3ccc(F)cc23)c1O [2-254] | 4 (Herbicidal rate of 70% or more and less than 90%)
4 | Cc1nn(C)c(=O)c(-c2c(-c3ccc([S+]([O-])C(C)C)cc3)sc3ccc(F)cc23)c1O (centres unmarked) [2-257] | 2 (Herbicidal rate of 20% or more and less than 40%)

Test system: barnyard grass
Assay: Test Example 3: herbicidal effect by foliage application, Wagner pot (Table 18, symbol H)
Format: in vivo, barnyard grass (Echinochloa crus-galli)
Conditions: amount of applied herbicide 320 g/ha
How it was run: (§1)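 Plants were sown in alluvial soil held under 0.1–0.5 cm standing water and grown 14 days in a greenhouse at 25–30 °C. An emulsifiable formulation, water-diluted to the set dose, was then sprayed onto the foliage, and effects were scored three weeks later using previously defined criteria.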

Row | SMILES | herbicidal effect on H: barnyard grass
5 | Cc1nn(C)c(=O)c(-c2c(-c3ccc(SC4CC4)cc3)sc3ccc(F)cc23)c1O [2-254] | 5 (Herbicidal rate of 90% or more (almost completely withered))
6 | Cc1nn(C)c(=O)c(-c2c(-c3ccc([S+]([O-])C(C)C)cc3)sc3ccc(F)cc23)c1O (centres unmarked) [2-257] | 5 (Herbicidal rate of 90% or more (almost completely withered))

Test system: Chinese sprangletop
Assay: Test Example 3: herbicidal effect by foliage application, Wagner pot (Table 18, symbol D)
Format: in vivo, chinese sprangletop (Leptochloa chinensis)
Conditions: amount of applied herbicide 320 g/ha
How it was run: as §1

Row | SMILES | herbicidal effect on D: Chinese sprangletop
7 | Cc1nn(C)c(=O)c(-c2c(-c3ccc(SC4CC4)cc3)sc3ccc(F)cc23)c1O [2-254] | 5 (Herbicidal rate of 90% or more (almost completely withered))
8 | Cc1nn(C)c(=O)c(-c2c(-c3ccc([S+]([O-])C(C)C)cc3)sc3ccc(F)cc23)c1O (centres unmarked) [2-257] | 3 (Herbicidal rate of 40% or more and less than 70%)

Test system: southern crabgrass
Assay: Test Example 4: herbicidal effect by soil treatment (Table 19, symbol F)
Format: in vivo, southern crabgrass (Digitaria ciliaris)
Conditions: amount of applied herbicide 320 g/ha
How it was run: (§2)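 Three weeks of greenhouse growth at 25° C. to 30° C. followed a uniform surface spray of water-diluted emulsion at a predetermined herbicide amount. Seeds had been sown beforehand under about 1.5 cm of sterilized diluvial soil. Grading followed criteria set out in an earlier test.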

Row | SMILES | herbicidal effect on F: southern crabgrass
9 | Cc1nn(C)c(=O)c(-c2c(-c3ccc(SC4CC4)cc3)sc3ccc(F)cc23)c1O [2-254] | 5 (Herbicidal rate of 90% or more (almost completely withered))
10 | Cc1nn(C)c(=O)c(-c2c(-c3ccc([S+]([O-])C(C)C)cc3)sc3ccc(F)cc23)c1O (centres unmarked) [2-257] | 3 (Herbicidal rate of 40% or more and less than 70%)

Test system: blackgrass
Assay: Test Example 4: herbicidal effect by soil treatment (Table 19, symbol J)
Format: in vivo, blackgrass (Alopecurus myosuroides)
Conditions: amount of applied herbicide 320 g/ha
How it was run: as §2

Row | SMILES | herbicidal effect on J: blackgrass
11 | Cc1nn(C)c(=O)c(-c2c(-c3ccc(SC4CC4)cc3)sc3ccc(F)cc23)c1O [2-254] | 4 (Herbicidal rate of 70% or more and less than 90%)
12 | Cc1nn(C)c(=O)c(-c2c(-c3ccc([S+]([O-])C(C)C)cc3)sc3ccc(F)cc23)c1O (centres unmarked) [2-257] | 1 (Herbicidal rate of 5% or more and less than 20%)

Test system: Italian ryegrass
Assay: Test Example 4: herbicidal effect by soil treatment (Table 19, symbol K)
Format: in vivo, Italian ryegrass (Lolium multiflorum)
Conditions: amount of applied herbicide 320 g/ha
How it was run: as §2

Row | SMILES | herbicidal effect on K: Italian ryegrass
13 | Cc1nn(C)c(=O)c(-c2c(-c3ccc(SC4CC4)cc3)sc3ccc(F)cc23)c1O [2-254] | 5 (Herbicidal rate of 90% or more (almost completely withered))
14 | Cc1nn(C)c(=O)c(-c2c(-c3ccc([S+]([O-])C(C)C)cc3)sc3ccc(F)cc23)c1O (centres unmarked) [2-257] | 3 (Herbicidal rate of 40% or more and less than 70%)

Test system: windgrass
Assay: Test Example 4: herbicidal effect by soil treatment (Table 19, symbol L)
Format: in vivo, windgrass (Apera spica-venti)
Conditions: amount of applied herbicide 320 g/ha
How it was run: as §2

Row | SMILES | herbicidal effect on L: windgrass
15 | Cc1nn(C)c(=O)c(-c2c(-c3ccc(SC4CC4)cc3)sc3ccc(F)cc23)c1O [2-254] | 3 (Herbicidal rate of 40% or more and less than 70%)
16 | Cc1nn(C)c(=O)c(-c2c(-c3ccc([S+]([O-])C(C)C)cc3)sc3ccc(F)cc23)c1O (centres unmarked) [2-257] | 0 (Herbicidal rate of 5% or less (almost no effect))

Test system: velvetleaf
Assay: Test Example 4: herbicidal effect by soil treatment (Table 19, symbol M)
Format: in vivo, velvetleaf (Abutilon theophrasti)
Conditions: amount of applied herbicide 320 g/ha
How it was run: as §2

Row | SMILES | herbicidal effect on M: velvetleaf
17 | Cc1nn(C)c(=O)c(-c2c(-c3ccc(SC4CC4)cc3)sc3ccc(F)cc23)c1O [2-254] | 2 (Herbicidal rate of 20% or more and less than 40%)
18 | Cc1nn(C)c(=O)c(-c2c(-c3ccc([S+]([O-])C(C)C)cc3)sc3ccc(F)cc23)c1O (centres unmarked) [2-257] | 3 (Herbicidal rate of 40% or more and less than 70%)

Test system: lambsquarters
Assay: Test Example 4: herbicidal effect by soil treatment (Table 19, symbol O)
Format: in vivo, lambsquarters (Chenopodium album)
Conditions: amount of applied herbicide 320 g/ha
How it was run: as §2

Row | SMILES | herbicidal effect on O: lambsquarters
19 | Cc1nn(C)c(=O)c(-c2c(-c3ccc(SC4CC4)cc3)sc3ccc(F)cc23)c1O [2-254] | 4 (Herbicidal rate of 70% or more and less than 90%)
20 | Cc1nn(C)c(=O)c(-c2c(-c3ccc([S+]([O-])C(C)C)cc3)sc3ccc(F)cc23)c1O (centres unmarked) [2-257] | 5 (Herbicidal rate of 90% or more (almost completely withered))

Test system: persian speedwell
Assay: Test Example 4: herbicidal effect by soil treatment (Table 19, symbol R)
Format: in vivo, Persian speedwell (Veronica persica)
Conditions: amount of applied herbicide 320 g/ha
How it was run: as §2

Row | SMILES | herbicidal effect on R: persian speedwell
21 | Cc1nn(C)c(=O)c(-c2c(-c3ccc(SC4CC4)cc3)sc3ccc(F)cc23)c1O [2-254] | 5 (Herbicidal rate of 90% or more (almost completely withered))
22 | Cc1nn(C)c(=O)c(-c2c(-c3ccc([S+]([O-])C(C)C)cc3)sc3ccc(F)cc23)c1O (centres unmarked) [2-257] | 5 (Herbicidal rate of 90% or more (almost completely withered))

Test system: blackgrass
Assay: Test Example 5: herbicidal effect by foliage application, plastic box (Table 20, symbol J)
Format: in vivo, blackgrass (Alopecurus myosuroides)
Conditions: foliage application, AAH 320 g/ha, evaluated three weeks after application
How it was run: (§3)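 Plants sown in sterilized diluvial soil and grown 14 days in a greenhouse at 25° C to 30° C, then sprayed on the foliage with the compound's emulsion diluted in water to a predetermined herbicide amount. Injury to weeds and crops scored three weeks after application on a visual rating scale.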

Row | SMILES | J: blackgrass, herbicidal effect (criteria 0-5)
23 | Cc1nn(C)c(=O)c(-c2c(-c3ccc(SC4CC4)cc3)sc3ccc(F)cc23)c1O [2-254] | 5 (Herbicidal rate of 90% or more (almost completely withered))
24 | Cc1nn(C)c(=O)c(-c2c(-c3ccc([S+]([O-])C(C)C)cc3)sc3ccc(F)cc23)c1O (centres unmarked) [2-257] | 4 (Herbicidal rate of 70% or more and less than 90%)

Test system: Italian ryegrass
Assay: Test Example 5: herbicidal effect by foliage application, plastic box (Table 20, symbol K)
Format: in vivo, Italian ryegrass (Lolium multiflorum)
Conditions: foliage application, AAH 320 g/ha, evaluated three weeks after application
How it was run: as §3

Row | SMILES | K: Italian ryegrass, herbicidal effect (criteria 0-5)
25 | Cc1nn(C)c(=O)c(-c2c(-c3ccc(SC4CC4)cc3)sc3ccc(F)cc23)c1O [2-254] | 5 (Herbicidal rate of 90% or more (almost completely withered))
26 | Cc1nn(C)c(=O)c(-c2c(-c3ccc([S+]([O-])C(C)C)cc3)sc3ccc(F)cc23)c1O (centres unmarked) [2-257] | 5 (Herbicidal rate of 90% or more (almost completely withered))

Test system: velvetleaf
Assay: Test Example 5: herbicidal effect by foliage application, plastic box (Table 20, symbol M)
Format: in vivo, velvetleaf (Abutilon theophrasti)
Conditions: foliage application, AAH 320 g/ha, evaluated three weeks after application
How it was run: as §3

Row | SMILES | M: velvetleaf, herbicidal effect (criteria 0-5)
27 | Cc1nn(C)c(=O)c(-c2c(-c3ccc(SC4CC4)cc3)sc3ccc(F)cc23)c1O [2-254] | 5 (Herbicidal rate of 90% or more (almost completely withered))
28 | Cc1nn(C)c(=O)c(-c2c(-c3ccc([S+]([O-])C(C)C)cc3)sc3ccc(F)cc23)c1O (centres unmarked) [2-257] | 5 (Herbicidal rate of 90% or more (almost completely withered))

Test system: redroot pigweed
Assay: Test Example 5: herbicidal effect by foliage application, plastic box (Table 20, symbol N)
Format: in vivo, redroot pigweed (Amaranthus retroflexus)
Conditions: foliage application, AAH 320 g/ha, evaluated three weeks after application
How it was run: as §3

Row | SMILES | N: redroot pigweed, herbicidal effect (criteria 0-5)
29 | Cc1nn(C)c(=O)c(-c2c(-c3ccc(SC4CC4)cc3)sc3ccc(F)cc23)c1O [2-254] | 5 (Herbicidal rate of 90% or more (almost completely withered))
30 | Cc1nn(C)c(=O)c(-c2c(-c3ccc([S+]([O-])C(C)C)cc3)sc3ccc(F)cc23)c1O (centres unmarked) [2-257] | 5 (Herbicidal rate of 90% or more (almost completely withered))

Test system: lambsquarters
Assay: Test Example 5: herbicidal effect by foliage application, plastic box (Table 20, symbol O)
Format: in vivo, lambsquarters (Chenopodium album)
Conditions: foliage application, AAH 320 g/ha, evaluated three weeks after application
How it was run: as §3

Row | SMILES | O: lambsquarters, herbicidal effect (criteria 0-5)
31 | Cc1nn(C)c(=O)c(-c2c(-c3ccc(SC4CC4)cc3)sc3ccc(F)cc23)c1O [2-254] | 5 (Herbicidal rate of 90% or more (almost completely withered))
32 | Cc1nn(C)c(=O)c(-c2c(-c3ccc([S+]([O-])C(C)C)cc3)sc3ccc(F)cc23)c1O (centres unmarked) [2-257] | 5 (Herbicidal rate of 90% or more (almost completely withered))

Reference: patent publication US20230085307A1, “PYRIDAZINONE COMPOUND AND HERBICIDE” (NISSAN CHEMICAL CORPORATION, priority 2019, published 2023)
